Results published in the NIST ThermoML archive (doi:10.1021/je050358g).

Details: Liquid, vibrating tube

CCCCCCCCCCCCCC[P+](CCCCCC)(CCCCCC)CCCCCC.O=S(=O)([N-]S(=O)(=O)C(F)(F)F)C(F)(F)F
mass density [kg/m3]
Details | 298.15 K | 303.25 K | 308.15 K | 318.27 K | 323.33 K | 328.39 K | 333.43 K
210 kPa | 1066.62 | 1062.61 | 1058.87 | 1051.54 | 1047.84 | 1044.49 | 1041.15
540 kPa | 1066.84 | 1062.85 | 1059.07 | 1051.79 | 1048.07 | 1044.74 | 1041.43
1000 kPa | 1067.13 | 1063.14 | 1059.37 | 1052.1 | 1048.38 | 1045.08 | 1041.76
3000 kPa | 1068.44 | 1064.47 | 1060.76 | 1053.49 | 1049.81 | 1046.53 | 1043.19
5010 kPa | 1069.7 | 1065.77 | 1062.11 | 1054.88 | 1051.24 | 1047.96 | 1044.61
7500 kPa | 1071.3 | 1067.39 | 1063.74 | 1056.54 | 1052.94 | 1049.68 | 1046.4
9990 kPa | 1072.85 | 1068.97 | 1065.36 | 1058.2 | 1054.64 | 1051.4 | 1048.13
15010 kPa | 1075.88 | 1072.09 | 1068.53 | 1061.47 | 1057.95 | 1054.74 | 1051.51
19990 kPa | 1078.82 | 1075.07 | 1071.57 | 1064.6 | 1061.14 | 1057.9 | 1054.8
25010 kPa | 1081.69 | 1078 | 1074.54 | 1067.62 | 1064.22 | 1061.01 | 1057.94
29990 kPa | 1084.45 | 1080.84 | 1077.42 | 1070.51 | 1067.21 | 1064.03 | 1060.97
35010 kPa | 1087.15 | 1083.56 | 1080.23 | 1073.32 | 1070.14 | 1066.99 | 1063.96
40000 kPa | 1089.79 | 1086.26 | 1082.95 | 1076.09 | 1072.99 | 1069.88 | 1066.84
45010 kPa | 1092.36 | 1088.87 | 1085.64 | 1078.77 | 1075.75 | 1072.64 | 1069.67
50000 kPa | 1094.88 | 1091.44 | 1088.25 | 1081.37 | 1078.47 | 1075.39 | 1072.43
55010 kPa | 1097.34 | 1093.95 | 1090.8 | 1084 | 1081.14 | 1078.08 | 1075.17
59990 kPa | 1099.74 | 1096.39 | 1093.3 | 1086.5 | 1083.74 | 1080.67 | 1077.73
65010 kPa | 1102.11 | 1098.81 | 1095.75 | 1088.91 | 1086.3 | 1083.24 | 1080.29

CC(=O)[O-].CCCCCCCCCCCCCC[P+](CCCCCC)(CCCCCC)CCCCCC [trihexyl(tetradecyl)phosphonium acetate]
mass density [kg/m3]
Details | 298.15 K | 303.15 K | 307.97 K | 313.07 K | 317.74 K | 323.96 K | 329.14 K | 334.11 K
210 kPa | 890.6 | 887.54 | 884.7 | 881.57 | 878.87 | 875.25 | 872.15 | 869.21
540 kPa | 890.77 | 887.71 | 884.86 | 881.77 | 879.06 | 875.43 | 872.35 | 869.41
1000 kPa | 891.01 | 887.96 | 885.13 | 882.02 | 879.32 | 875.7 | 872.61 | 869.67
3000 kPa | 892.04 | 889.03 | 886.22 | 883.14 | 880.46 | 876.87 | 873.78 | 870.81
5010 kPa | 893.09 | 890.08 | 887.29 | 884.26 | 881.6 | 878 | 874.92 | 871.98
7500 kPa | 894.35 | 891.38 | 888.6 | 885.61 | 882.99 | 879.4 | 876.33 | 873.42
9990 kPa | 895.56 | 892.64 | 889.9 | 886.96 | 884.32 | 880.77 | 877.71 | 874.78
15010 kPa | 897.96 | 895.15 | 892.45 | 889.57 | 886.95 | 883.42 | 880.41 | 877.5
19990 kPa | 900.29 | 897.52 | 894.88 | 892.06 | 889.47 | 885.99 | 883 | 880.11
25010 kPa | 902.57 | 899.86 | 897.23 | 894.49 | 891.91 | 888.48 | 885.53 | 882.67
29990 kPa | 904.74 | 902.08 | 899.51 | 896.77 | 894.26 | 890.86 | 887.95 | 885.12
35010 kPa | 906.9 | 904.28 | 901.72 | 899.05 | 896.54 | 893.19 | 890.32 | 887.57
40020 kPa | 908.99 | 906.41 | 903.88 | 901.21 | 898.76 | 895.47 | 892.64 | 889.93
45010 kPa | 911.02 | 908.45 | 905.95 | 903.32 | 900.88 | 897.65 | 894.88 | 892.22
49990 kPa | 912.98 | 910.44 | 907.95 | 905.38 | 902.96 | 899.78 | 897.06 | 894.45
55000 kPa | 914.91 | 912.4 | 909.92 | 907.36 | 904.98 | 901.85 | 899.19 | 896.66
59990 kPa | 916.81 | 914.31 | 911.84 | 909.27 | 906.93 | 903.86 | 901.27 | 898.81
65010 kPa | 918.66 | 916.16 | 913.69 | 911.16 | 908.84 | 905.84 | 903.3 | 900.91

CCCCCCCCCCCCCC[P+](CCCCCC)(CCCCCC)CCCCCC.[Cl-] [trihexyl(tetradecyl)phosphonium chloride]
mass density [kg/m3]
Details | 298.13 K | 303.15 K | 308.13 K | 313.15 K | 318.15 K | 323.14 K | 328.16 K | 333.14 K
190 kPa | 891.62 | 888.51 | 885.65 | 882.72 | 879.82 | 876.69 | 873.88 | 870.88
1000 kPa | 892.02 | 888.97 | 886.07 | 883.19 | 880.27 | 877.16 | 874.33 | 871.36
3000 kPa | 893.07 | 890.03 | 887.18 | 884.3 | 881.41 | 878.29 | 875.5 | 872.51
5010 kPa | 894.09 | 891.06 | 888.26 | 885.4 | 882.52 | 879.43 | 876.64 | 873.64
7500 kPa | 895.36 | 892.35 | 889.57 | 886.75 | 883.89 | 880.82 | 878.05 | 875.05
10000 kPa | 896.59 | 893.6 | 890.87 | 888.06 | 885.24 | 882.18 | 879.42 | 876.42
15010 kPa | 899.02 | 896.1 | 893.38 | 890.63 | 887.86 | 884.84 | 882.11 | 879.11
19990 kPa | 901.33 | 898.48 | 895.82 | 893.11 | 890.37 | 887.38 | 884.69 | 881.72
25010 kPa | 903.6 | 900.78 | 898.17 | 895.49 | 892.81 | 889.86 | 887.2 | 884.25
29990 kPa | 905.77 | 903.01 | 900.42 | 897.81 | 895.15 | 892.24 | 889.62 | 886.71
35010 kPa | 907.93 | 905.17 | 902.63 | 900.04 | 897.43 | 894.57 | 891.98 | 889.11
39990 kPa | 910.01 | 907.28 | 904.75 | 902.21 | 899.63 | 896.82 | 894.24 | 891.46
45010 kPa | 912.05 | 909.34 | 906.82 | 904.32 | 901.78 | 899.01 | 896.49 | 893.73
50000 kPa | 914.03 | 911.34 | 908.83 | 906.35 | 903.87 | 901.13 | 898.62 | 895.96
55000 kPa | 915.93 | 913.27 | 910.78 | 908.34 | 905.9 | 903.19 | 900.74 | 898.14
59990 kPa | 917.83 | 915.17 | 912.67 | – | 907.87 | 905.21 | 902.79 | 900.26
65000 kPa | 919.63 | 916.99 | 914.51 | – | 909.78 | 907.16 | 904.8 | 902.35
